Values joined by “and” are separate entries in the source; they are usually repeats but may differ in a detail not shown here. Equal values may be shown once. Read-outs that look alike come from different tables or passages of the source.
What was measured:
DAT = details: read-out: Half-maximal inhibitory concentration, IC50, cited from earlier work
[1] = Systemic pharmacokinetic parameters used in simulation exercise; format: in vivo, rat; details: parameter used in simulation; for clearance / Vd: plasma; for clearance: rat 0.3 kg, read-out: Systemic clearance, CL (converted); for Vd: rat, read-out: Apparent volume of distribution, Vd
Description: (§1) In order to minimize the usage of animals and gain high confidence in the tissue distribution, a 4 h constant intravenous infusion study was designed based on the systemic pharmacokinetic parameters determined elsewhere. The catheters were surgically implanted a day before the PK experiment. The rats (n = 3 per compound) were then individually placed into a CMA 120 system (CMA, Solna, Sweden). […] A dose of 20 mg/kg was administered as a combination of an initial short 10 min infusion as a loading dose followed by a constant infusion up to 4 h, targeting a steady-state total plasma concentration of around 1000 ng/mL for each compound (based on the pilot study results). Blood was collected into heparinized Eppendorf tubes via a femoral artery catheter at 0 (before infusion starts) 1, 2, 3, and 4 h after the infusion started and immediately centrifuged at 10,000 rpm for 5 min at +4 °C. Plasma was then collected and kept at −20 °C. At 4 h, the rats were anesthetized via inhalation of 2.5% isoflurane (Abbot Scandinavia, Solna, Sweden), balanced with 1.5 L/min oxygen, after which the terminal blood and tissue samples were collected. […] The tissue samples (brain, spinal cord, liver, and kidney) were rapidly removed, pre-weighed into a 2 mL hard tissue homogenizing tube with mini-beads, and subsequently homogenized in 2 volumes of MQ water using a 4-Place Bead Mill Homogenizer (VWR, Stockholm, Sweden) at the maximal speed for 2 min and thereafter kept at +4 °C. The plasma and tissue homogenate samples were stored at −20 °C until LC–MS analysis.
The simulation was performed at a given initial total plasma concentration to be equal to the steady-state concentrations obtained in the neuroPK study, utilizing the parameters listed in Supplementary Table S4. A two-compartment model consisting of blood and brain compartments with a focus on the unbound concentrations was used for the simulation exercise (see details on the structure of the model in Supplementary Figure S5). The representative unbound plasma and brain profiles are presented in Supplementary Figure S6.
Table S4. Parameters used in simulation exercise.
Fraction of un bound in unitless 0.252 0.797
Rate of BBB transport parameters*
Ext ent of BBB transport and intra-brain dist ribution
Unbound brain-t o-plasma unitless 0.46 0.097 concentrati on rat io, Kp,uu,brain
Unbound volume of mL/g brain 5.21 3.73 distribution in brain, Vu,brain
Additional parameters used
Infusi on rate mg/h 0.05 1.0
* Data of blood-brain barrier per meation of 100 µM CE-123 and modafinil across an in vitro Transw ell model based on mouse cell line cerebEND were included in the simulation. Experimental procedures were published previously The permeability coefficients w ere calculated according to the clearance principle deduct ing blank inserts without cells.
**Similar apparent permeability in human BBB cell culture model and rat endot helial cells was assumed.

[2] = In vivo rat tissue biodistribution / neuroPK study, 4 h intravenous constant infusion; design: species or system Sprague-Dawley rats; details: rat; for Kp at 4 h / concentration at 4 h: Sprague-Dawley; for Kp at 4 h: brain (whole brain homogenate) relative to plasma, steady state, read-out: Total brain-to-plasma concentration ratio, Kp,brain; for concentration at 4 h: intravenous, 20 mg/kg; for order of Kp,tissue from highest to lowest: total tissue-to-plasma concentration ratio
Description: The results are summarized in Figure 4 and Table S2 within Supplementary Materials.
as §1
For all the rat plasma and CSF samples, an aliquot of 50 µL was spiked with 50 µL of 4% PA in water containing the IS solution to disrupt the drug–protein binding. For all rat tissue samples (brain, spinal cord, liver, and kidney), an aliquot of 50 µL was spiked with 50 µL ice-cold ACN containing the IS solution for protein precipitation. The samples were vortexed and spun down for 10 min (3000× g, 4 °C) and 25 µL of clear supernatant was diluted with 225 µL 0.1% FA in water to achieve 10% of ACN in the solution. SPE clean-up was performed using an Oasis PRiME HLB µElution 96-well plate, 3 mg (Waters Corporation, Vienna, Austria). The SPE cartridges were preconditioned and equilibrated with 1 × 200 µL ACN and 0.1% FA in water each. The samples were loaded onto the cartridges and washed with 2 × 200 µL 0.1% FA in water and 1 × 200 µL ACN/0.1% FA in water 10:90 (v:v). The analytes were eluted from the SPE cartridge into a collection plate with 2 × 25 µL ACN/0.1% FA in water 70:30 (v:v). All the samples were diluted with 50 µL of 0.1% FA in water and 10 µL of sample was injected onto the LC–HRMS system.
All samples, blanks, standards, and quality control samples in the respective matrices were analyzed on a UHPLC system (Dionex UltiMate 3000 RSLC series system, Thermo Fisher Scientific, Inc., Dreieich, Germany) coupled with a high-resolution mass spectrometer (maXis HD Q-TOF, Bruker Daltonics, Bremen, Germany) equipped with a heated electrospray ionization (ESI) source. Reversed-phase chromatographic separation was performed on a Kinetex Phenyl-Hexyl column (2.6 µm, 2.1 × 50 mm, Phenomenex, Torrance, CA, USA), equipped with a precolumn (2.6 µm, Phenomenex, Torrance, CA, USA), at a flow rate of 0.4 mL/min. Eluent A was water containing 0.1% FA and eluent B ACN. A multi-step gradient was optimized as follows: the initial mobile phase composition (5% eluent B) was held constant for 1 min, followed by a linear increase to 30% eluent B until minute 1.5, to 40% eluent B until minute 5.5, and to 95% eluent B until minute 6. After a hold time of 2 min, the column was re-equilibrated for 2.5 min at the initial conditions (5% eluent B). The column compartment and the autosampler were maintained at 40 °C and at 8 °C, respectively. […]

[3] = 4 h iv constant infusion 20 mg/kg
[4] = brain, 4 h iv constant infusion 20 mg/kg, n=3, read-out: Total concentration in brain
[5] = kidney, 4 h iv constant infusion 20 mg/kg, n=3, read-out: Total concentration in kidney
[6] = liver, 4 h iv constant infusion 20 mg/kg, n=3, read-out: Total concentration in liver
[7] = plasma, 4 h iv constant infusion 20 mg/kg, n=3, read-out: Total concentration in plasma
[8] = plasma, 4 h iv constant infusion 20 mg/kg, read-out: Total drug concentration in plasma, Ctot,plasma
[9] = plasma, 4 h iv constant infusion 20 mg/kg, read-out: Total steady-state plasma concentration, Cplasma,ss
[10] = plasma, mean, in vivo study, 4 h iv infusion 20 mg/kg, read-out: Unbound-drug concentration in plasma, Cu,plasma
[11] = spinal cord, 4 h iv constant infusion 20 mg/kg, n=3, read-out: Total concentration in spinal cord

| SMILES | IC50 (DAT; ref Loland et al. 2012 [27]) [µM] | Systemic clearance unbound, Clu [1] [L/h] | clearance [1] [mL/min] | Vd [1] [L] | Kp at 4 h [2, 3] | concentration at 4 h ([2]; CSF, cisterna magna, 4 h iv infusion 20 mg/kg, single rats, read-out: Total concentration in CSF) [ng/mL] | concentration at 4 h [2, 4] [ng/g] | concentration at 4 h ([2]; brain, single sample, rat brain after 4 h iv infusion 20 mg/kg, read-out: concentration in rat brain sample (Figure S4 chromatogram)) [ng/mL] | concentration at 4 h [2, 5] [ng/g] | concentration at 4 h [2, 6] [ng/g] | concentration at 4 h [2, 7] [ng/mL] | concentration at 4 h [2, 8] [µM] | concentration at 4 h [2, 9] [µM] | concentration at 4 h [2, 10] [µM] | concentration at 4 h [2, 11] [ng/g] | order of Kp,tissue from highest to lowest [2] | IC50 (DAT; ref Kristofova et al. 2018 [36]) [µM] | Total concentration in CSF ([2]; cisterna magna, 4 h iv infusion 20 mg/kg, single rats) |
| --- | --- | --- | --- | --- | --- | --- | --- | --- | --- | --- | --- | --- | --- | --- | --- | --- | --- | --- |
| NC(=O)C[S@@+]([O-])C(c1ccccc1)c1ccccc1 [R-modafinil, reference compound] | […] | 1.194 | 25 | 1.02 | 0.29 ± 0.013 | 784 | 448 | 471 | 2540 | 2170 | 1010 | 3.69 | 5.57 ± 0.649 | 2.91 | 733 | kidneys > liver > spinal cord > brain | – | – |
| [O-][S@@+](Cc1cncs1)C(c1ccccc1)c1ccccc1 [S-CE-123] | – | 0.046 | 3.07 | 0.232 | 0.61 ± 0.1 | – | 820 | – | 1780 | 2730 | 1050 | 3.35 | 4.15 ± 2.2 | 0.839 | 1240 | liver > kidneys > spinal cord > brain | 4.6 | 570 ng/mL and 104 ng/mL |
